According to paper PMC12163635, “Synthetic Retinoids for the Modulation of Genomic and Nongenomic Processes in Neurodegenerative Diseases” (ACS Omega, 2025):

Tested on: Sil-15 cells containing a RARE driving a lacZ reporter
Assay: X-Gal-based RA reporter assay (genomic response)
Format: cell-based
Conditions: for genomic response Emax (±95% CI) / EC50: Sil-15 reporter cells; for genomic response Emax (±95% CI): absorbance at 650 nm; for genomic E max compared with ATRA: nonoverlapping 95% CI; for EC50: read-out: genomic response EC50 (±95% CI), overnight, 10^–6 to 10^–14 M
Description: Following chemical design and synthesis, the synthetic retinoid library was screened for genomic and nongenomic biological activities and compared to the response of the endogenous retinoid, ATRA. In these assays, the EC50 value represented the concentration of retinoid that gave half-maximal response (potency), while the E max value represented the maximum response achievable from the retinoid (efficacy).
The transcriptional genomic activity of the retinoids was quantified using Sil-15 cells containing a RARE driving a lacZ reporter. […] Twenty-two of the synthetic retinoids were effective in inducing genomic activity. […] In addition, the retinoids varied in their efficacies.
The Sil-15 cell line was used in the X-gal RA reporter assay described below. The cells were grown in Dulbecco’s modified Eagle’s medium (DMEM) containing 10% fetal bovine serum (FCS) (Invitrogen/Gibco), 0.6% penicillin-streptomycin (Gibco) and 0.8 mg/mL G418 sulfate (Sigma) for selection. They were maintained in a humidified atmosphere containing 5% CO2 at 37 °C. The medium was changed three times a week and the cells were passaged at 70% confluence using 0.05% trypsin-EDTA.
Sil-15 cells are F9 teratocarcinoma cells stably transfected with a plasmid containing the LacZ gene under the control of a DR5-type RA response element (RARE). The reporter cell line was used to detect the transcriptional genomic activity of ATRA and other retinoids by colorimetrically quantifying the insoluble blue product generated by β-galactosidase from X-gal during the assay. The assay was performed by plating 100,000 cells per well in the 0.1% gelatin-coated 96-well plates and leaving them to attach overnight. The ATRA/retinoids dilutions ranging from 10^–6 to 10^–14 M were incubated on the reporter cells overnight at 37 °C, in 5% CO2. A standard curve of ATRA was included in each experiment to ensure the reproducibility of the results between assays performed on different days. All the assays for ATRA as well as the retinoids were quantified in triplicate. Serial dilutions of retinoids were prepared from a stock solution under red/orange light. The stock solutions prepared in DMSO for each retinoid varied depending on the solubility of each compound. Each stock was stored at −20 °C and protected from light. The next day, Sil-15 cells were washed with PBS, fixed with 1% glutaraldehyde and 1 mM MgCl2 solution for 15 min, and developed in X-gal developing solution (0.2% X-Gal, 1 mM MgCl2, 3.3 mM potassium ferricyanide and 3.3 mM potassium ferrocyanide in PBS). The plates were read on an E max microplate reader (Molecular Devices) at 650 nm.
All data are presented as mean ± SEM of three independent experiments with biological triplicates. Statistical analyses were performed in Microsoft Office Excel 2019 or GraphPad Prism 7.0c version (Prism, GraphPad Software, San Diego, CA). Neurite outgrowth data were analyzed by one-way ANOVA with Newman-Keuls multiple comparison test as appropriate; P value <0.05 was considered statistically significant. *P < 0.05, **P < 0.01. Data for X-Gal and ERK1/2 phosphorylation were analyzed using sigmoidal dose–response analysis of log (agonist) versus response curve (stimulation).

SMILES	genomic response Emax (±95% CI)	genomic E max compared with ATRA	EC50 [nM]
CC1(C)CCC(C)(C)c2cc(C#Cc3ccc(C(=O)O)nc3)ccc21 [Compound 24, 5-[2-(5,5,8,8-Tetramethyl-5,6,7,8-tetrahydronaphthalen-2-yl)ethynyl]pyridine-2-carboxylic Acid]	207 (±19.5)	significantly higher E max than ATRA	0.146
COc1cc2c(cc1C#Cc1cc(F)c(C(=O)O)c(F)c1)C(C)(C)CCC2(C)C [Compound 22, 2,6-Difluoro-4-[2-(3-methoxy-5,5,8,8-tetramethyl-5,6,7,8-tetrahydronaphthalen-2-yl)ethynyl]benzoic Acid]	155 (±10.6)	significantly lower E max than ATRA	0.146
